The results in this text go back to patent US20250197391A1, “METHODS OF SYNTHESIZING EGFR INHIBITORS” (Scorpion Therapeutics, Inc., priority 2022, published 2025).

The nature of data set [1]: Stability of process solutions / solid on drying over days (HPLC area %). It is filed as physicochemical.
Data set [2] can be described thus: Solubility data in solvents. To be noted: for solubility: organic solvent or mixture. It is filed as physicochemical.

The structures appear in SMILES notation. ≈ marks a conversion by molar mass, not a printed value. Where “and” joins values, the source holds several entries; their conditions need not be identical. Equal entries are not always repeated.

For the compound `COc1c(Cl)cccc1N=C=S` [Compound 1, 1-chloro-3-isothiocyanato-2-methoxybenzene], the “Area % after hold” value came out at 96.0 A % in data set [1] (IPAC solution, 40 ± 5 C., 1 d); 95.9 A % in data set [1] (IPAC solution, 40 ± 5 C., 2 d); 94.3 A % in data set [1] (IPAC solution, 40 ± 5 C., 3 d); 95.5 A % in data set [1] (IPAC solution, 50 ± 5 C., 1 d); 94.7 A % in data set [1] (IPAC solution, 50 ± 5 C., 2 d); 90.5 A % in data set [1] (IPAC solution, 50 ± 5 C., 3 d).
Consider `COc1c(Cl)cccc1NC(=S)C1=C(O)CCN(C(=O)OC(C)(C)C)C1=O` [Compound 2, tert-butyl 5-((3-chloro-2-methoxyphenyl)carbamothioyl)-4-hydroxy-6-oxo-3,6-dihydropyridine-1(2H)-carboxylate], for which the solubility in data set [2] (solvent ACN) was 33 mg/mL (≈ 79.9 mM); in data set [2] (solvent DCM), more than 200 mg/mL; in data set [2] (solvent EtOAc) it was 100 mg/mL (≈ 242 mM); in data set [2] (solvent EtOH) it was less than 5 mg/mL; in data set [2] (solvent MTBE), 28 mg/mL (≈ 67.8 mM); in data set [2] (solvent MeOH), 5 mg/mL (≈ 12.1 mM). Moreover, the solubility in data set [2] (solvent n-heptane) was less than 5 mg/mL. In addition, the “Area % after hold” value in data set [1] (IPAC solution pH = 5-6, 20 ± 5 C., 0 d) is 90.1 A %; in data set [1] (IPAC solution pH = 5-6, 20 ± 5 C., 1 d) it was 89.8 A %; in data set [1] (IPAC solution pH = 5-6, 20 ± 5 C., 3 d) it was 90.9 A %; in data set [1] (IPAC solution, 25 ± 5 C., 0 d) it was 87.3%; in data set [1] (IPAC solution, 25 ± 5 C., 1 d, listed as Comp. 2), 88.7% and 86.0%; in data set [1] (IPAC solution, 25 ± 5 C., 2 d, listed as Comp. 2), 86.5% and 85.6%. Moreover, the “Area % after hold” value is 85.2% and 83.5% in data set [1] (IPAC solution, 25 ± 5 C., 3 d, listed as Comp. 2); 90.1 A % in data set [1] (IPAC solution, 40 ± 5 C., 0 d); 88.6 A % and 87.7 A % in data set [1] (IPAC solution, 40 ± 5 C., 1 d, listed as Comp. 2); 84.7 A % and 80.0% in data set [1] (IPAC solution, 40 ± 5 C., 3 d, listed as Comp. 2); 99.7 A % in data set [1] (on drying, 45 ± 5 C., 0 d); 99.8% in data set [1] (on drying, 45 ± 5 C., 3 d).
On to `COc1c(Cl)cccc1Nc1c(-c2ccncc2Br)[nH]c2c1C(=O)N(C(=O)OC(C)(C)C)CC2` [Compound 101, tert-butyl 2-(3-bromopyridin-4-yl)-3-((3-chloro-2-methoxyphenyl)amino)-4-oxo-1,4,6,7-tetrahydro-5H-pyrrolo[3,2-c]pyridine-5-carboxylate], for which the solubility is 33 mg/mL (≈ 60.2 mM) in data set [2] (solvent ACN); more than 125 mg/mL in data set [2] (solvent DCM); 6.25 mg/mL (≈ 11.4 mM) in data set [2] (solvent EtOAc); 6.25 mg/mL (≈ 11.4 mM) in data set [2] (solvent EtOH); 6.25 mg/mL (≈ 11.4 mM) in data set [2] (solvent MTBE); 7.1 mg/mL (≈ 13 mM) in data set [2] (solvent MeOH). The solubility in data set [2] (solvent n-heptane) and in data set [2] (solvent toluene) was less than 5 mg/mL in each case.
Turning to `COc1c(Cl)cccc1Nc1c(-c2ccncc2Br)[nH]c2c1C(=O)NCC2` [Compound 102, 2-(3-bromopyridin-4-yl)-3-((3-chloro-2-methoxyphenyl)amino)-1,5,6,7-tetrahydro-4H-pyrrolo[3,2-c]pyridin-4-one], in data set [2] (5 V of DCM, MeCN, MTBE, THF, MeOH, EtOAc or toluene at reflux), the “Dissolution in crystallization solvents” value was “has not been dissolved in all these solvents at reflux except for THE”. Also, the solubility is 5 mg/mL (≈ 11.2 mM) in data set [2] (solvent 2-MeTHF); more than 200 mg/mL in data set [2] (solvent DMAC); more than 100 mg/mL in data set [2] (solvent DMF); more than 100 mg/mL in data set [2] (solvent DMSO); 94 mg/mL (≈ 210 mM) in data set [2] (solvent HFIP); 2 mg/mL (≈ 4.47 mM) in data set [2] (solvent MeCN). Besides, the solubility in data set [2] (solvent NMP) was more than 100 mg/mL; in data set [2] (solvent TFE), 79 mg/mL (≈ 176 mM); in data set [2] (solvent THE), 31 mg/mL (≈ 69.2 mM).

What is called solubility is the dissolved amount per volume that the medium holds.
